Values of other authors as cited in patent US8211842B2, “Preventive and/or curative agent for cleaning materials that are brought into contact with water” (priority 2006, dated 2012).

How the values were obtained:
Conditions in all cases: standard AFNOR NF T 72-151
[1] = test system: Mycobactenum smegmatis 7326
[2] = test system: Streptococcus faecalis 5855
Escherichia coli 54127 = test system: Escherichia coli 54127
[3] = test system: Staphylococcus aureus 53164
[4] = test system: Pseudomonas aeruginosa A22

Measured: dose effective as a bactericide

CCCCCCCCCC[N+](C)(C)CCCCCCCCCC.[Cl-] [didecyl dimethylammonium chloride]
50 ppm: all assays above
